This is an account of results in patent US20250382330A1, “IMMUNOLOGICALLY ACTIVE POLYPEPTIDE” (CDRES PHARMA LLC, priority 2022, published 2025).

“Also recorded” adds a separate entry of the source. Like-named read-outs stand apart in the source and are kept apart here. Ends that are not written are not given here.

The conditions of data set [1]: first renal transplantations, cited from earlier work.
Data set [2] in a line: Solubility of peptideX2-13 modifications in aqueous buffer. Format: physicochemical. Conditions: for solubility, comparative: modification (10) vs peptideX2-13, modification (11) vs (10), reversed core sequence. On the procedure: Various modifications of peptideX2-13 were tested for solubility (see Table 2).
A short description of data set [3]: Tolerability / adverse effects of intravenous dosing in the Lewis rat RA model. Conditions: for adverse effects: 500 μg/ml, intravenous. The data set is classed as in vivo. On the procedure: On day 15, the rats were divided into treatment groups and were dosed intravenously on a daily basis for the next 15 days (except as noted) with the pentide YLQMN (SEQ ID NO: 5)-containing PeptideX2 (SEQ ID NO: 1) to achieve final circulating concentrations of PeptideX2 peptide as follows: 0 μg/ml (vehicle control: 0.2% acetic acid-Dulbecco's phosphate buffered saline (PBS-D), pH 6.0); 100 μg/ml vehicle; 200 μg/ml vehicle, and 500 μg/ml vehicle per rat/per day. As a positive control for anti-inflammatory activity, daily dosing of a control rat with prednisolone at 10 mg/kg/day was used. The arthritis index was calculated daily for each viable rat throughout the 30-day study.
B. Stability, aggregation, and toxicity of the pentide YLQMN (SEQ ID NO: 5)-containing polypeptides PeptideX2 (SEQ ID NO: 1) and G2-PeptideX2 (SEQ ID NO: 2).
Eleven Lewis rats were prepared using the collagen induced arthritis protocol. At day 15 thru day 30, three rats were given daily dosing of PeptideX2-13 (SEQ ID NO: 3) at 100 μg/ml, three rats were given daily dosing of PeptideX2-13 (SEQ ID NO: 3) at 250 μg/ml, and three rats were given daily dosing of PeptideX2-13 (SEQ ID NO: 3) at 500 μg/ml; as a positive control group, two rats were given prednisolone at 10 mg/kg/day.
The rats were weighed, scored for signs of arthritis and assigned to various treatment groups of one or more rats to each group. For the prednisolone control group, 200.85 mg prednisolone 21-hemisuccinate sodium salt (Sigma, Cat. P4153) was dissolved in 15 ml de-ionized water to prepare a 10 mg/ml solution which was stored at 4-8° C. when not in use. Rats in the study groups were dosed daily from day 15 through day 30 according to the formula for which a rat weighing (g)×64 ml/1000 g (represents the total blood volume) multiplied by the test product dose/test product concentration to determine the total volume to be injected into the animal per day to achieve that desired estimated blood concentration. Rats were weighed and scored daily during the treatment phase of the experiment and the results recorded and reported.

Data set [4] has as its system collagen-induced arthritis in Lewis rats. The data set is described as follows: Collagen-induced arthritis in Lewis rats, daily arthritis index. The data set is classed as in vivo, Lewis rat. To be noted: positive control, 10 mg/kg/day. On the procedure:
A. Collagen-Induced Lewis Rat Model of Rheumatoid Arthritis (RA)-PeptideX2 (SEQ ID NO: 1). The Lewis rat system is an art-accepted in vivo animal model of collagen-induced rheumatoid arthritis. Lewis rats obtained from a commercial laboratory supply vendor were maintained during a quarantine period under standard animal care conditions and found to be free of any clinical signs of disease or distress. Bovine type II collagen (10 mg, Chondrex, Inc., Redmond, WA) was dissolved in 2.5 ml 0.1M acetic acid and stirred overnight at 4-8° C. in the dark, and then one ml of this collagen solution was emulsified in one ml of incomplete Freund's adjuvant (ICFA, Sigma, St. Louis, MO) on an ice bath. On day zero, each of five rats was injected with 0.2 ml of collagen/ICFA emulsion at two sites and then observed for the next 30 days with the arthritis index (AI) calculated daily using the 16-point scoring method of Bevaart et al. (2010 Meths. Mol. Biol. 602:181: 0 points, no joint swelling or edema; 1 point, slight edema and erythema limited to foot and/or ankle; 2 points, edema and erythema in the toes and most ankle joints; 3 points, severe edema and erythema in the paw below the ankle joint; 4 points, edema and erythema of all four paws including the ankle joint). […]
6 Lewis rats (ENVIGO, female, 190-210g) were received, individually examined, and housed. […] Rat weights were recorded daily. […]

Data set [5] has as its target T1, human TLR2 (human, UniProt O60603 21-784).
T1 construct: whole, on cells; Expressed in HEK293 NF-κB/SEAP reporter cells; also called hTLR2; toll-like receptor 2
Briefly: NF-κB SEAP reporter on human TLR panel; binding inferred from reporter activity.

The target of data set [6] is T1, human TLR2. The data set is described as follows: NF-κB SEAP reporter in HEK293 cells expressing human TLR2, 200 µg/ml (FIG. 6); binding inferred from reporter activity. On the procedure: Human Toll-like receptor ligand screening was performed using test samples containing a peptide of interest at 200 μg/ml. The general procedure consisted of testing for NF-κB activation in HEK293 cells expressing a given TLR. The samples were tested against seven different human TLRs (TLR2, 3, 4, 5, 7, 8, 9). The media added to the wells were designed for the detection of NF-κB induced SEAP (secreted embryonic alkaline phosphatase) expression. After 16-24 hours of incubation, the optical density (OD) was read at 650 nm on a Molecular Devices SpectraMax 340PC absorbance detector.

Where [7] appears, read: buffer (0.2% acetic acid, 0.375M Hepes, 0.375% glycerol, pH 7), no concentration stated.

T1 sequence (O60603 21-784): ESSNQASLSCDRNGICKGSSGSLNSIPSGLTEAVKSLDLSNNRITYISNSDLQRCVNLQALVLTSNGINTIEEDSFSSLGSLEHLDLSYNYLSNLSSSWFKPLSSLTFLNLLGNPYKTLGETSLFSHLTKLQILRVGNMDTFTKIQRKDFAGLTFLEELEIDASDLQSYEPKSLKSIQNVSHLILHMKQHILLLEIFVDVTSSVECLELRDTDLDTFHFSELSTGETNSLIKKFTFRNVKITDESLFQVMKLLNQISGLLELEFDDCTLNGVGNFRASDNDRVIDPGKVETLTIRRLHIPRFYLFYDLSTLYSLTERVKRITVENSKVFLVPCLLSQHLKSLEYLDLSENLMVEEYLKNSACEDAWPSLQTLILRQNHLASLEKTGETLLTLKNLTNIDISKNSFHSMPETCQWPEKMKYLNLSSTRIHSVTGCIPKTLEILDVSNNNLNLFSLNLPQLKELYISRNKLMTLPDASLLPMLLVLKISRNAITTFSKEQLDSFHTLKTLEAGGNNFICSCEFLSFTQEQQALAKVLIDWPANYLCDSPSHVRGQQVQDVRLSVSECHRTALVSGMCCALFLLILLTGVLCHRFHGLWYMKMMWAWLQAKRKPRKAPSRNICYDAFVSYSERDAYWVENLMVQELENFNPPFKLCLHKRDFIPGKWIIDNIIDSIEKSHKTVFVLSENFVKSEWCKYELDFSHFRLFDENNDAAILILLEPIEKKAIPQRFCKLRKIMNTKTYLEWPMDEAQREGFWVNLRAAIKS

On to `Cn1cnc([N+](=O)[O-])c1Sc1ncnc2nc[nH]c12` [AZA, azathioprine], for which the graft survival rate in data set [1] (5 years post-transplant) is given as 56%; in data set [1] (10 years post-transplant) it was 46%.

Consider “GRAAYLQMNAARG [K2R/K12R-substituted PeptideX2-13]”, for which, in data set [2] (buffer, at 2 mg/ml), the Solubility result is on record as “Soluble in buffer”.

Turning to GRSSAYLQMNASSRG [modification (10)], in data set [2] (at 5 mg/ml concentration), the Solubility result was “Insoluble at”. Besides, the “solubility, comparative” value in data set [2] is “less solubility compared to peptideX2-13”.

On to YLQMN [pentide, YLQMN], for which the adverse effects entry in data set [3] is “No adverse effects”.

Regarding GKYLQMNKG [SEQ ID NO: 22], the Solubility entry in data set [2] (buffer, at 2 mg/ml) is listed as “Soluble in buffer”.

As to GKAYLQMNAKG [SEQ ID NO: 13], the Solubility result in data set [2] (buffer, at 2 mg/ml) is on record as “Soluble in buffer”.

As for GRSSANMQLYASSRG [modification (11)], in data set [2] (at 5 mg/ml concentration), the Solubility entry is recorded as “Insoluble at”. Besides, the “solubility, comparative” value in data set [2] is recorded as “no significant difference”.

Take PKAAYLQMNAAKP [SEQ ID NO: 12]: the Solubility entry in data set [2] (buffer, at 2 mg/ml) is reported as “Soluble in buffer”.

Regarding GKAANMQLYAAKG [SEQ ID NO: 17], in data set [2] (buffer, at 2 mg/ml), the Solubility result was “Soluble in buffer”.

For the molecule “KSIAYLQMNSLK [PeptideX2, reference compound]”, the adverse effects result in data set [3] is “went into respiratory distress and died immediately”. The “outcome (death)” value in data set [3] (single IV dose to achieve 300 μg/ml, thirty-eight minutes after injection) was “went into convulsions again and died”.

For GYLQMNG [modification (7), GYLQMNG], in data set [2] (setting [7]), the Solubility entry is recorded as “insoluble in aqueous buffer”.

Consider GKAAYLQMNAAKG [PeptideX2-13], for which the Solubility entry in data set [2] (setting [7]) is reported as “Soluble in buffer”. Also, the “tolerability in animal model compared with PeptideX2” value in data set [3] (summary statement) is “tolerated and not toxic at a certain higher concentrations than was the case for previously described PeptideX2”.

In the case of `C[C@]12C=CC(=O)C=C1CC[C@@H]1[C@@H]2[C@@H](O)C[C@@]2(C)[C@H]1CC[C@]2(O)C(=O)CO` [prednisolone], the arthritis index entry in data set [4] was “potent and sustained reduction of the arthritis index; also recorded: decreased”.

As for `C=CC[C@@H]1/C=C(\C)C[C@H](C)C[C@H](OC)[C@H]2O[C@@](O)(C(=O)C(=O)N3CCCC[C@H]3C(=O)O[C@H](/C(C)=C/[C@@H]3CC[C@@H](O)[C@H](OC)C3)[C@H](C)[C@@H](O)CC1=O)[C@H](C)C[C@@H]2OC` [TAC, tacrolimus], the values for the graft survival rate in data set [1] (5 years post-transplant) and in data set [1] (10 years post-transplant) were 77% and 60%, respectively.

Consider KSIAYLQMNSLK [PeptideX2 (KSIAYLQMNSLK)], for which the binding result in data set [5] is recorded as “binds”.

B1: reverse modified peptideX2 (NMQLY) (peptide)
peptide: NMQLY
notes: Printed as NMQLY; also called reverse core; reverse-peptideX2
As for B1, in data set [6], the binding result is given as “binds”.
